Measured values taken from patent publication US20040162432A1, “Substituted octahydrophenanthrene compounds and use thereof as NMDA antagonists” (priority 2001, published 2004).

Legend:
[1] = test system: (+)-MK801 binding site of the ionotropic NMDA receptor; test: (3H)-(+)-MK801 receptor binding test on rat brain membrane homogenates; conditions: 10 μmol/l compound; ligand (3H)-(+)-MK801; rat brain membrane homogenate; triplicate batches
Procedure: The investigations for determining the affinity of the octahydrophenanthrene compounds of the general formula I according to the invention with the (+)-MK801 binding site of the ionotropic NMDA receptor was performed on brain membrane homogenates (homogenate of rat brain without the cerebellum, pons and medulla oblongata of male rats, Wistar strain, Charles River, WIGA GmbH, Sulzbach, Germany) as described in B. M. Baron et al., Journal of Pharmacology and Experimental Therapeutics, vol. 279, pages 62-68, 1996. The corresponding literature description is hereby introduced as a reference and is deemed to be part of the disclosure.
To this end, after separation of the cerebellum, pons and medulla oblongata, freshly prepared rat brains were disrupted for 1 minute with a Polytron homogeniser at 6,000 rpm in 50 mmol/l of tris/HCl (pH 7.7) with ice cooling and were then centrifuged for 15 min at 4° C. and 60,000 g. After decanting off and discarding the supernatant, resuspending the membrane pellet in 50 mmol/l of tris/HCl (pH 7.7) and disrupting it with a homogeniser at 2,000 rpm for 1 minute, centrifuging was again performed for 15 min at 4° C. and 60,000 g. The supernatant was again discarded and the membrane pellet was homogenised in 50 mmol/l of tris/HCl (pH 7.7) (2,000 rpm for 1 minute) and frozen in aliquots at −70° C.
Aliquots were in each case thawed for the receptor binding test and then centrifuged for 15 min at 4° C. and 60,000 g. After decanting off and discarding the supernatant, the membrane pellet was suspended for the binding test with binding test buffer and homogenised (2,000 rpm for 1 minute).
The buffer used for the binding test was a buffer of 5 mmol/l of tris/HCl (pH 7.7), supplemented with 30 μmol/l of glycine and 100 μmol/l of glutamic acid.
The radioactively labelled ligand used was […] of (^3H)-(+)-MK801 ((5R,10S)-(+)-5-methyl-10,11-dihydro-5H-dibenzo(a,d)cyclohepten-5,10-imine). The level of non-specific binding was determined in the presence of 10 μmol/l of non-radioactively labelled (+)-MK801.
were added in concentration series and the displacement of the radioactive ligand from its specific binding on the NMDA receptor was determined. Each of the triplicate batches was incubated for 40 minutes at 25° C. and then harvested by filtration through glass fibre filters (GF/B) in order to determine the radioactive ligand bound to the brain membrane homogenate. The radioactivity retained on the glass fibre filter disk was measured, after addition of scintillating liquid, in the β-counter.
The percentage inhibition of the specific binding of the ligand (^3H)-(+)-MK801 obtained from triplicate batches in the presence of in each case 10 μmol/l of the substituted octahydrophenanthrene compounds of the general formula I is stated in Table 1 and serves as a measure of the affinity of the compounds of the general formula I according to the invention with the (+)-MK801 binding site of the ionotropic NMDA receptor.

[2] = test system: phenylquinone-induced writhing in mice; test: Writhing test in mice (phenylquinone-induced writhing); assay type: in vivo; conditions: male mice, phenylquinone i.p., writhing counted 5-20 minutes after phenylquinone
Procedure: The analgesic efficacy of the compounds according to the invention was investigated by phenylquinone-induced writhing in mice, modified after I.C. Hendershot, J. Forsaith in J. Pharmacol. Exp. There. 125, 237-240 (1959). Male mice weighing 25-30 g were used for this purpose. Groups of 10 animals per substance dose received, 1.0 minute after intravenous administration of the substances tested, 0.3 ml/mouse of a 0.02% aqueous solution of phenylquinone (phenylbenzoquinone, Sigma, Deisenhofen; solution prepared with addition of 5% of ethanol and stored in a water bath at 45° C.) administered intraperitoneally. The animals were then placed individually in observation cages. A push button counter was used to record the number of pain-induced stretching movements (writhing reactions=straightening of the torso with stretching of the rear extremities) for 5-20 minutes after phenylquinone administration. The control was provided by animals who received only physiological common salt solution with phenylquinone.
All the substances were tested at the standard dosage of 10 mg/kg. The percentage inhibition (% inhibition) of the writhing reactions by a substance was calculated according to the following formula: [formula]

Structure (SMILES) | Percentage inhibition of (+)-MK801 binding at 10 μM [1] | Percentage inhibition of writhing reaction at 10 mg/kg i.v. [2]
CN(C)CC1CCCC2c3ccccc3CCC12.Cl (stereo not drawn) [Compound 1, 8-Dimethylaminomethyl-4b,5,6,7,8,8a,9,10-octahydrophenanthrene hydrochloride] | 46% | 74%
COc1ccc2c(c1)C1CCCC(CN(C)C)C1CC2.Cl (stereo not drawn) [Compound 2, 8-Dimethylaminomethyl-3-methoxy-4b,5,6,7,8,8a,9,10-octahydrophenanthrene hydrochloride] | 56% | 75%
CN(C)CC1CCCC2c3cc(O)ccc3CCC12.Cl (stereo not drawn) [Compound 3, 8-Dimethylaminomethyl-4b,5,6,7,8,8a,9,10-octahydrophenanthren-3-ol hydrochloride] | 40% | 85%
CN(C)CC1CCCC2c3ccc(F)cc3CCC12.Cl (stereo not drawn) [Compound 4, 8-Dimethylaminomethyl-2-fluoro-4b,5,6,7,8,8a,9,10-octahydrophenanthrene hydrochloride] | 36% | –
CN(C)CC1CCCC2c3cc(Cl)ccc3CCC12.Cl (stereo not drawn) [Compound 5, 8-Dimethylaminomethyl-3-chloro-4b,5,6,7,8,8a,9,10-octahydrophenanthrene hydrochloride] | 28% | –
CN(C)CC1CC(C(C)(C)C)CC2c3ccccc3CCC12.Cl (stereo not drawn) [Compound 6, 6-tert-Butyl-8-dimethylaminomethyl-4b,5,6,7,8,8a,9,10-octahydrophenanthrene hydrochloride] | 31% | –
